Patent publication US20190086302A1, “COMPOSITION FOR PREPARING BIOLOGICAL MATERIAL HAVING EXCELLENT LIGHT TRANSMISSIVITY AND USE OF COMPOSITION” (RIKEN, priority 2016, published 2019)
Where a name gives a salt, the structure may show the parent alone. Read-outs that look alike come from different tables or passages of the source.

Columns and labels:
[1] = Absorbance of chemical solution at 400 nm (OD400); assay type: physicochemical
pH of chemical solution = assay type: physicochemical
bovine coagulated blood = experiment: Decoloring screening: heme eluted from PFA-fixed bovine coagulated blood, absorbance of supernatant; conditions: Table 2, 10 wt % aqueous solution, 37° C. overnight; for 700 nm calibrated 420 nm Average: decoloring activity OD420-OD700 of supernatant
Procedure: A high-throughput screening system for evaluating the decoloring ability of various compounds was constructed. The screening system involved adding an aqueous solution of each compound to bovine coagulated blood and then measuring the absorbance of heme collected in the supernatant.
Specifically, to bovine blood, an equal amount of 8% PFA solution was added, and reacted at 4° C. overnight. The mixed liquid was centrifuged at 1500×g for 5 minutes, and the supernatant containing PFA was discarded. Then, the same amount of PBS as the original volume of blood was added to prepare a coagulated blood sample. To 150 μL of 10 wt % aqueous solution of each compound, 50 μL of the coagulated blood sample was added, and reacted at 37° C. overnight. The reaction solution was centrifuged at 1500×g for 5 minutes, and then 100 μL of the supernatant was added to a plate so as to be subjected to absorbance measurement. A sample which is suspended in water instead of being dissolved in the water has a weak decoloring effect, but none the less has a high absorbance value. […]

mouse hemisphere = experiment: Delipidation and clearing of mouse hemisphere; conditions: basic chemicals with pH of 11 to 12; 10 wt %, 37° C., 3 days, then CUBIC-2A
Procedure: Subsequently, the delipidation efficiency of the series of compounds in mammalian tissue was examined. […] The transmittance of the brain tissue was measured, and then the brain tissue was washed with PBS and was disrupted. […] It was thus shown that the above basic chemicals and some neutral chemicals were better than the detergents from the viewpoint of permeability with respect to tissue. […] Subsequently, the mouse hemisphere was subjected to refractive index adjustment with CUBIC-2A. […] Accordingly, #0414 (N-butyldiethanolamine) was selected as a highly-efficient delipidation chemical.

mouse spleen = experiment: Decoloring of mouse spleen (OD420 of supernatant, transmissive image); conditions: 10 wt % solution, 37° C. overnight
mouse brain = experiment: Swelling and clearing of delipidated mouse brain; conditions: brain delipidated with CUBIC-1, shaken 3 days
[2] = Table 2, absorbance of chemical solution at 400 nm

Compound: CNCC(O)c1cccc(O)c1.Cl (racemic) [#1142, DL-Phenylephrine hydrochloride]
- OD400 [1]: 0.060
- pH (pH of chemical solution): 6.7

Compound: Cl.O=C(O)CCP(CCC(=O)O)CCC(=O)O [#0197, Tris(2-carboxyethyl)phosphine hydrochloride]
- 400 nm [1, 2]: 0.047
- pH (pH of chemical solution; Table 2, chemical solution): 2.3

Compound: CN(C)CCSSCCN(C)C [#0295, Bis(2-dimethylaminoethyl) disuflide dihydrochloride]
- OD400 ([1]; Table 3): 0.047
- pH (pH of chemical solution; Table 3): 5.3

Compound: CCCC[N+](CCCC)(CCCC)Cc1ccccc1.[Cl-] [#0307, Benzyltributylammonium chloride]
- OD400 ([1]; Table 3): 0.048
- pH (pH of chemical solution; Table 3): 7.0

Compound: CCCCCCCCCCCCCC[N+](C)(C)Cc1ccccc1 [#0362, Benzyldimethyltetradecylammonium chloride hydrate]
- Integrated value 500-700 nm Average (bovine coagulated blood): 1.74
- 700 nm calibrated 420 nm Average (bovine coagulated blood): 2.13
- 400 nm [1, 2]: 0.053
- pH (pH of chemical solution; Table 2, chemical solution): 6.6

Compound: CN(CCCN)CCCN [#0380, 3,3′-Diamino-N-methyldipropylamine]
- 400 nm [1, 2]: 0.065
- pH (pH of chemical solution; Table 2, chemical solution): 13.0

Compound: OCCNCc1ccccc1 [#0389, N-Benzylethanolamine]
- transparency of mouse hemispheres (mouse hemisphere): selected

Compound: NCC1CCOCC1 [#0407, 4-Aminomethyltetrahydropyran]
- 400 nm [1, 2]: 0.049

Compound: CCCCN(CCO)CCO [#0414, N-Butyldiethanolamine]
- transparency of mouse hemispheres (mouse hemisphere): selected

Compound: [Cl-].c1ccc(C[P+](c2ccccc2)(c2ccccc2)c2ccccc2)cc1 [#0425, Benzyltriphenylphosphonium chloride]
- 400 nm [1, 2]: 0.048
- pH (pH of chemical solution; Table 2, chemical solution): 9.3

Compound: CC(C)(C)CC(C)(C)c1ccc(OCCOCC[N+](C)(C)Cc2ccccc2)cc1 [#0441, Benzethonium chloride]
- 400 nm [1]: 0.049
- pH (pH of chemical solution): 6.4

Compound: C1CCC2=NCCCN2CC1 [#0594, 1,8-Diazabicyclo[5.4.0]-7-undecene]
- 400 nm [1, 2]: 0.05
- pH (pH of chemical solution; Table 2, chemical solution): 13.5

Compound: CCCCCCCCCCCC[n+]1ccccc1 [#0635, 1-Dodecylpyridinium chloride]
- Integrated value 500-700 nm Average (bovine coagulated blood): 3.67
- 700 nm calibrated 420 nm Average (bovine coagulated blood): 3.66

Compound: Cc1cc(=O)n(-c2ccccc2)n1C [#0640, 2,3-Dimethyl-1-phenyl-5-pyrazolone]
- 400 nm [1, 2]: 0.048
- OD400 ([1]; Table 3): 0.048
- pH (pH of chemical solution; Table 2, chemical solution): 7.5
- pH (pH of chemical solution; Table 3): 7.5

Compound: C[n+]1ccc(-c2cc[n+](C)cc2)cc1 [#0652, 1,1′-Dimethyl-4,4′-bipyridinium dichloride]
- 400 nm [1, 2]: 0.082
- pH (pH of chemical solution; Table 2, chemical solution): 6.0

Compound: CCC(N)CCN (centres unmarked) [#0678, 1,3-Diaminopentane]
- 400 nm [1, 2]: 0.048

Compound: CCCCCCCCCCCC[N+](C)(C)CCCS(=O)(=O)O [#0694, Dodecyldimethyl(3-sulfopropyl)ammonium hydroxide]
- 400 nm [1, 2]: 0.55
- 400 nm ([1]; Table 2, absorbance of chemical solution at 400 nm, listed as #0661): 0.051
- pH (pH of chemical solution; Table 2, chemical solution, listed as #0661): 6.5

Compound: NCCCNCCCN [#0785, 3,3′-Diaminodipropylamine]
- 400 nm [1, 2]: 0.05
- OD400 ([1]; Table 3): 0.05
- pH (pH of chemical solution; Table 2, chemical solution): 13.8
- pH (pH of chemical solution; Table 3): 13.8

Compound: CN(C)CCOC(c1ccccc1)c1ccccc1.Cl [#0909, Diphanhydramine hydrochloride]
- OD400 ([1]; Table 3): 0.048
- pH (pH of chemical solution; Table 3): 7.0

Compound: CCn1ccnc1 [#0938, 1-Ethylimidazole]
- mouse spleen decoloring activity (mouse spleen): highest mouse spleen decoloring activity

Compound: NC[C@H](O)[C@@H](O)[C@H](O)[C@H](O)CO [#0956, D-Glucoomine (FocusClear ™), reference compound]
- OD400 ([1]; Table 3): 0.280

Compound: CCCCCCCCCCCC[N+](C)(C)C [#1021, Dodecyltrimethylammonium chloride]
- 400 nm [1, 2]: 0.048
- pH (pH of chemical solution; Table 2, chemical solution): 7.5

Compound: OCCN1CC1 [#1061, 1-(2-Hydroxyethyl)ethyleneimine]
- 400 nm [1, 2]: 0.048
- pH (pH of chemical solution; Table 2, chemical solution): 13.1

Compound: NCC(O)CN [#1062, 1,3-Diamino-2-propanol]
- Integrated value 500-700 nm Average (bovine coagulated blood): 0.50

Compound: c1cnccn1 [#1085, Pyrazine]
- 400 nm [1, 2]: 0.051
- pH (pH of chemical solution; Table 2, chemical solution): 8.6

Compound: C1CCC2=[N+](CC1)CCCN2.O=C1N=C([O-])c2ccccc21 [#1181, Phtalimide DBU salt]
- OD400 ([1]; Table 3): 0.049
- pH (pH of chemical solution; Table 3): 6.0

Compound: CCCCCCCCCCCCCCCC[N+](C)(C)C [#1235, Hexadecyltrimethylammonium Chloride]
- 400 nm [1]: 0.048
- pH (pH of chemical solution): 6.6

Compound: CC(CN)CCCN (centres unmarked) [#1267, 2-Methyl-1,5-diaminopentane]
- pH (pH of chemical solution; Table 2, chemical solution): 12.8

Compound: CNC(=O)c1cccnc1 [#1283, N-Methylnicotinamide]
- 700 nm calibrated 420 nm Average (bovine coagulated blood): 2.96
- OD400 ([1]; Table 3): 0.003

Compound: c1c[nH]cn1 [#1352, imidazole]
- swelling of mouse brain (mouse brain): high-degree of swelling

Compound: C[C@H](CCC(=O)[O-])[C@H]1CC[C@H]2[C@@H]3CC[C@@H]4C[C@H](O)CC[C@]4(C)[C@H]3C[C@H](O)[C@]12C.[Na+] [#1507, Sodium deoxycholate]
- pH (pH of chemical solution; Table 2, chemical solution, listed as #0562): 8.3

Compound: CCN(CC)CCO [#1575, 2-Diethylaminoethanol]
- 400 nm [1, 2]: 0.06
- pH (pH of chemical solution; Table 2, chemical solution): 12.8

Compound: Cc1cccc(C)c1NC1=NCCCS1.Cl [#1612, Xylazine hydrochloride]
- OD400 ([1]; Table 3): 0.063
- pH (pH of chemical solution; Table 3): 6.8

Compound: C[N+](C)(C)Cc1ccccc1.[OH-] [#03887, Benzyltrimethylammonium hydroxide]
- 400 nm [1, 2]: 0.054
- pH (pH of chemical solution; Table 2, chemical solution, listed as #0398): 12.9

Compound: Dodacene-1 LAS (JIS K 3361-1990) [#0672]
- 400 nm [1, 2]: 0.081
- pH (pH of chemical solution; Table 2, chemical solution): 5.9

Compound: Hydrazine carbonate [#1052]
- OD400 [1]: 0.047
- pH (pH of chemical solution): 10.2

Compound: Tween ® 40 [#1465]
- 400 nm [1, 2]: 0.083
- pH (pH of chemical solution; Table 2, chemical solution): 6.4
